Measurements published in patent US20250222044A1, “LIMOSILACTOBACILLUS REUTERI GOLDGUT-LR99 AND APPLICATION THEREOF” (priority 2024, published 2025).
Where a SMILES comes first, the peptide text is derived from it.

Tested on: Limosilactobacillus reuteri GOLDGUT-LR99
Assay: Carbon source utilization and oxidation experiment (AN Biolog micro-pore plate)
Assay type: cell-based
Conditions: substrate utilization by the strain; for Utilization (Y=OD590−OD750): 37° C. anaerobic culture for 24 hours
Experimental: The AN Biolog micro-pore plate was used for measuring the utilization and oxidation conditions of different carbon sources of Limosilactobacillus reuteri GOLDGUT-LR99, the AN microplate used nutrients and biochemical reagents, and the method included the following steps: 1 mL of Limosilactobacillus reuteri GOLDGUT-LR99 bacterial liquid of the strain to be detected at the end of logarithmic growth was pipetted and centrifuged, then the supernatant was removed, the cells was washed three times with the seed liquid and suspended with 1 mL of the seed liquid, 50 μL of the suspension was taken and diluted in 10 mL of the seed liquid, the diluent was subpacked in a Biolog plate (100 μL/pore) after mixing uniformly, and the Biolog plate with the diluent was placed in 37° C. for anaerobic culture for 24 hours. After the culture was finished, OD590 and OD750 were detected by using microplate reader, the numerical values were recorded, and the utilization conditions of carbohydrate, organic acid and other substances of the Limosilactobacillus reuteri GOLDGUT-LR99 were calculated, wherein the calculation method was as follows: Y=OD590−OD750;

Molecule	Utilization (Y=OD590−OD750)	utilization effect (in words)
3-Methyl-D-4-glucose	++ (when Y > 0.1, it is shown that the strain was able to effectively utilize this substance, marked as++)	
OC[C@H]1O[C@@H](O[C@@H]2[C@@H](CO)OC(O)(CO)[C@H]2O)[C@H](O)[C@@H](O)[C@H]1O (mixture of isomers) [Lactulose]	− (when Y < 0.05, it is shown that the strain was not able to utilize this substance, marked as −)	
CC(O)C(=O)O (racemic) [D,L-Lactic acid]	++ (when Y > 0.1, it is shown that the strain was able to effectively utilize this substance, marked as++)	effectively utilize
O=P(O)(O)OCC(O)CO (racemic) [D,L-α-Glycerophosphate]	− (when Y < 0.05, it is shown that the strain was not able to utilize this substance, marked as −)	
Nc1ncnc2c1ncn2[C@H]1C[C@H](O)[C@@H](CO)O1 [2′-Deoxyadenosine]	− (when Y < 0.05, it is shown that the strain was not able to utilize this substance, marked as −)	
N#C[C@H](O[C@@H]1O[C@H](CO[C@@H]2O[C@H](CO)[C@@H](O)[C@H](O)[C@H]2O)[C@@H](O)[C@H](O)[C@H]1O)c1ccccc1 [Amygdalin]	− (when Y < 0.05, it is shown that the strain was not able to utilize this substance, marked as −)	
OC[C@H]1O[C@@H](Oc2ccc(O)cc2)[C@H](O)[C@@H](O)[C@@H]1O [Arbutin]	− (when Y < 0.05, it is shown that the strain was not able to utilize this substance, marked as −)	
OC[C@@H](O)C(O)[C@H](O)CO [D-Arabinitol]	− (when Y < 0.05, it is shown that the strain was not able to utilize this substance, marked as −)	
OC[C@H]1O[C@@H](O[C@H]2[C@H](O)[C@@H](O)[C@H](O)O[C@@H]2CO)[C@H](O)[C@@H](O)[C@@H]1O [D-Cellobiose]	++ (when Y > 0.1, it is shown that the strain was able to effectively utilize this substance, marked as++)	
O=C(CO)[C@@H](O)[C@H](O)[C@H](O)CO [D-Fructose]	++ (when Y > 0.1, it is shown that the strain was able to effectively utilize this substance, marked as++)	better utilization effect
O=C[C@H](O)[C@@H](O)[C@@H](O)[C@H](O)CO [D-Galactose]	++ (when Y > 0.1, it is shown that the strain was able to effectively utilize this substance, marked as++)	
O=C[C@H](O)[C@@H](O)[C@@H](O)[C@H](O)C(=O)O [D-Galacturonic acid]	++ (when Y > 0.1, it is shown that the strain was able to effectively utilize this substance, marked as++)	
O=C(O)[C@@H](O)[C@@H](O)[C@H](O)[C@@H](O)C(=O)O [D-Glucarate]	++ (when Y > 0.1, it is shown that the strain was able to effectively utilize this substance, marked as++)	effectively utilize
O=C1O[C@H](CO)[C@@H](O)[C@H](O)[C@H]1O [D-Gluconolactone]	++ (when Y > 0.1, it is shown that the strain was able to effectively utilize this substance, marked as++)	
O=C(O)[C@H]1OC(O)[C@H](O)[C@@H](O)[C@@H]1O (stereo partly drawn) [D-Glucoronate]	++ (when Y > 0.1, it is shown that the strain was able to effectively utilize this substance, marked as++)	
O=C(O)C[C@@H](O)C(=O)O [D-Malic acid]	− (when Y < 0.05, it is shown that the strain was not able to utilize this substance, marked as −)	
OC[C@@H](O)[C@@H](O)[C@H](O)[C@H](O)CO [D-Mannitol]	+ (when 0.1 > Y > 0.05, it is shown that the strain was able to better utilize this substance, marked as +)	
OC[C@H]1O[C@@](CO)(O[C@H]2O[C@H](CO)[C@@H](O)[C@H](O)[C@H]2O)[C@@H](O[C@H]2O[C@H](CO)[C@@H](O)[C@H](O)[C@H]2O)[C@@H]1O [D-Melezitose]	− (when Y < 0.05, it is shown that the strain was not able to utilize this substance, marked as −)	
OC[C@@H](O)[C@@H](O)[C@H](O)[C@@H](O)CO [D-Sorbitol]	++ (when Y > 0.1, it is shown that the strain was able to effectively utilize this substance, marked as++)	
OC[C@H]1O[C@H](O[C@H]2O[C@H](CO)[C@@H](O)[C@H](O)[C@H]2O)[C@H](O)[C@@H](O)[C@@H]1O [D-Trehalose]	− (when Y < 0.05, it is shown that the strain was not able to utilize this substance, marked as −)	
CC(C)[C@@H](C)/C=C/[C@@H](C)[C@H]1CC[C@H]2C3=CC=C4C[C@@H](O)CC[C@]4(C)[C@H]3CC[C@]12C [Ergosterol]	++ (when Y > 0.1, it is shown that the strain was able to effectively utilize this substance, marked as++)	
CC(=O)O [Ethanoic acid]	− (when Y < 0.05, it is shown that the strain was not able to utilize this substance, marked as −)	
O=CO [Formic acid]	− (when Y < 0.05, it is shown that the strain was not able to utilize this substance, marked as −)	

Molecule	Utilization (Y=OD590−OD750)	utilization effect (in words)
O=C(O)/C=C/C(=O)O [Fumaric acid]	− (when Y < 0.05, it is shown that the strain was not able to utilize this substance, marked as −)	
O=P(O)(O)O[C@H]1O[C@H](CO)[C@@H](O)[C@H](O)[C@H]1O [Glucose-1-phosphate]	+ (when 0.1 > Y > 0.05, it is shown that the strain was able to better utilize this substance, marked as +)	
O=C[C@H](O)[C@@H](O)[C@H](O)[C@H](O)COP(=O)(O)O [Glucose-6-phosphate]	++ (when Y > 0.1, it is shown that the strain was able to effectively utilize this substance, marked as++)	
OCC(O)CO [Glycerol]	− (when Y < 0.05, it is shown that the strain was not able to utilize this substance, marked as −)	
NCC(=O)N[C@@H](CCC(N)=O)C(=O)O [Glycyl-L-glutamine] (H-Gly-Gln-OH)	− (when Y < 0.05, it is shown that the strain was not able to utilize this substance, marked as −)	
CSCC[C@H](NC(=O)CN)C(=O)O [Glycyl-L-methionine]	− (when Y < 0.05, it is shown that the strain was not able to utilize this substance, marked as −)	
NCC(=O)N1CCC[C@H]1C(=O)O [Glycylprolline] (H-Gly-Pro-OH)	− (when Y < 0.05, it is shown that the strain was not able to utilize this substance, marked as −)	
O=CC(=O)O [Glyoxylic acid]	+ (when 0.1 > Y > 0.05, it is shown that the strain was able to better utilize this substance, marked as +)	
OC[C@H]1O[C@@H](n2cnc3c(O)ncnc32)[C@H](O)[C@@H]1O [Inosine]	− (when Y < 0.05, it is shown that the strain was not able to utilize this substance, marked as −)	
C=C(CC(=O)O)C(=O)O [Itaconic acid]	− (when Y < 0.05, it is shown that the strain was not able to utilize this substance, marked as −)	
C[C@H](N)C(=O)O [L-Alanine]	− (when Y < 0.05, it is shown that the strain was not able to utilize this substance, marked as −)	
C[C@H](N)C(N)=O [L-Alanineamide]	++ (when Y > 0.1, it is shown that the strain was able to effectively utilize this substance, marked as++)	
C[C@H](N)C(=O)N[C@@H](Cc1c[nH]cn1)C(=O)O [L-Alanyl-histidine] (H-Ala-His-OH)	− (when Y < 0.05, it is shown that the strain was not able to utilize this substance, marked as −)	
N[C@@H](CCC(=O)O)C(=O)O [L-Glutamic acid]	− (when Y < 0.05, it is shown that the strain was not able to utilize this substance, marked as −)	
C[C@H](O)C(=O)O [L-Lactic acid]	++ (when Y > 0.1, it is shown that the strain was able to effectively utilize this substance, marked as++)	
O=C(O)C[C@H](O)C(=O)O [L-Malic acid]	− (when Y < 0.05, it is shown that the strain was not able to utilize this substance, marked as −)	
CSCC[C@H](N)C(=O)O [L-Methionine]	− (when Y < 0.05, it is shown that the strain was not able to utilize this substance, marked as −)	
N[C@@H](Cc1ccccc1)C(=O)O [L-Phenylalanine]	− (when Y < 0.05, it is shown that the strain was not able to utilize this substance, marked as −)	
C[C@H](O)[C@H](O)[C@@H](O)[C@@H](O)C=O [L-Rhamnose]	++ (when Y > 0.1, it is shown that the strain was able to effectively utilize this substance, marked as++)	
N[C@@H](CO)C(=O)O [L-Serine]	− (when Y < 0.05, it is shown that the strain was not able to utilize this substance, marked as −)	
C[C@@H](O)[C@H](N)C(=O)O [L-Threonine]	− (when Y < 0.05, it is shown that the strain was not able to utilize this substance, marked as −)	
OCC1OC(OC2OC(CO)C(O)C(O)C2O)C(O)C(O)C1O [L-Trehalose]	++ (when Y > 0.1, it is shown that the strain was able to effectively utilize this substance, marked as++)	better utilization effect
CC(C)[C@H](N)C(=O)O [L-Valine]	+ (when 0.1 > Y > 0.05, it is shown that the strain was able to better utilize this substance, marked as +)	good utilization effect
